Results: patent publication US20240133897A1, “COMPOSITIONS AND METHODS FOR IDENTIFYING AND MODULATING THROMBOTIC CONDITIONS IN A CANCER PATIENT” (Beth Israel Deaconess Medical Center, Inc., priority 2019, published 2024)

Tests used:
HPAF-II cells [1] = experiment: Flow cytometry of TF-bearing extracellular vesicles from HPAF-II cells after UPR induction; format: cell-based; conditions: for increase in the generation of TF-bearing EVs: HPAF-II cells following UPR induction, flow cytometry
From the text: (§1) The unfolded protein response (UPR) is associated with malignant transformation in pancreatic cancer, but whether or not activation of the UPR is linked to cancer thrombosis has not previously been evaluated. To determine whether UPR signaling functions in the prothrombotic transformation of pancreatic cancer, pancreatic adenocarcinoma cells (HPAF-II cells) were exposed to three UPR inducers (tunicamycin, triptolide and thapsigargin) that act via independent mechanisms. […] Release of thrombogenic material was inhibited by siRNA-mediated knockdown of UPR components including IRE1α (80%±3% decrease) or PERK (60%±10% decrease). […] Apoptosis as detected by caspase-3 cleavage was not observed under these conditions.

HPAF-II cells [2] = experiment: Thrombin generation by material released from HPAF-II cells after UPR induction; format: cell-based; conditions: for decrease in thrombin generation (release of thrombogenic material): HPAF-II cells, UPR induced, chemical inhibition or siRNA knockdown of UPR components; for increase in thrombin generation in pelleted material: pancreatic adenocarcinoma HPAF-II cells exposed to UPR inducers, supernatant pelleted material
From the text: as §1

Row | Compound | inhibition of UPR-induced generation of TF-bearing EVs (HPAF-II cells [1]; HPAF-II cells, UPR induced) | decrease in thrombin generation (release of thrombogenic material) (HPAF-II cells [2]) | increase in thrombin generation in pelleted material (HPAF-II cells [2]) [fold] | increase in the generation of TF-bearing EVs (HPAF-II cells [1]) [fold]
1 | C[C@H]1CCC/C=C/[C@@H]2C[C@H](O)C[C@H]2[C@H](O)/C=C/C(=O)O1 [Brefeldin A] | inhibited | – | – | –
2 | Cn1cc(-c2ccc3c(c2)CCN3C(=O)Cc2cccc(C(F)(F)F)c2)c2c(N)ncnc21 [GSK2606414] | – | 80%±5% | – | –
3 | CN1CCN(C(=O)c2ccc(-c3ccc4c(C=O)c(O)ccc4c3)s2)CC1 [MKC-3946] | – | 70%±10% | – | –
4 | C/C=C(/C)C(=O)O[C@H]1C(C)=C2[C@H]([C@@H]1OC(=O)CCCCCCC)[C@@](C)(OC(C)=O)C[C@H](OC(=O)CCC)[C@@]1(O)[C@H]2OC(=O)[C@@]1(C)O [thapsigargin] | – | – | 3 | 3
5 | CC(C)[C@]12O[C@H]1[C@@H]1O[C@]13[C@]1(O[C@H]1C[C@H]1C4=C(CC[C@@]13C)C(=O)OC4)[C@@H]2O [triptolide] | – | – | 3 | 3
6 | tunicamycin | – | – | 3 | 3
